From ChEMBL document CHEMBL1156428 (J Biol Chem, 2007) come the findings set out here.

In assay [1] the target is T1, Human immunodeficiency virus type 1 reverse transcriptase (Human immunodeficiency virus 1, UniProt Q72547). The assay can be described thus: Inhibition of HIV1 RT mediated DNA-dependent DNA synthesis initiation using RNA/DNAM duplex primed substrate by scintillation proximity assay.
The target of assay [2] is T1, Human immunodeficiency virus type 1 reverse transcriptase. Description: Inhibition of HIV1 RT mediated DNA-dependent DNA synthesis initiation using RNA PPT primed substrate by scintillation proximity assay.
Assay [3] can be described thus: Inhibition of HIV1 RT D443N mutant mediated DNA-dependent DNA polymerization using chimeric substrate with RNA PPT primer. Set-up: species or system Human immunodeficiency virus 1.
Assay [4] can be described thus: Inhibition of HIV1 RT D443N mutant mediated DNA-dependent DNA polymerization using chimeric substrate with RNA PPT primer extended at 3' end with upto 6 deoxyribonucleotides. Also on record: species or system Human immunodeficiency virus 1.
The target in assay [5] is T1, Human immunodeficiency virus type 1 reverse transcriptase. Description: Inhibition of HIV1 RT mediated DNA-dependent DNA polymerization using chimeric substrate with RNA PPT primer extended at 3' end with upto 3 deoxyribonucleotides.
Assay [6] concerns the target T2, Human immunodeficiency virus type 1 reverse transcriptase (Human immunodeficiency virus 1, UniProt Q72547, K103N). Description: Inhibition of HIV1 RT K103N mutant mediated DNA-dependent DNA polymerization using DNA PPT primed substrate by scintillation proximity assay.
The nature of assay [7]: Inhibition of HIV1 RT D443N mutant mediated DNA-dependent DNA polymerization using chimeric substrate with RNA PPT primer extended at 3' end with upto 2 deoxyribonucleotides. Set-up: species or system Human immunodeficiency virus 1.
Assay [8] deals with T2, Human immunodeficiency virus type 1 reverse transcriptase. The assay can be described thus: Inhibition of HIV1 RT K103N mutant mediated DNA-dependent DNA polymerization using RNA/DNAM duplex primed substrate by scintillation proximity assay.
Assay [9] deals with T1, Human immunodeficiency virus type 1 reverse transcriptase. Description: Inhibition of HIV1 RT mediated DNA-dependent plus-strand DNA polymerization after 5 mins by gel-based assay.
Assay [10] addresses T3, Human immunodeficiency virus type 1 reverse transcriptase (Human immunodeficiency virus 1, UniProt Q72547, Y181C). Description: Inhibition of HIV1 RT Y181C mutant mediated DNA-dependent DNA polymerization using DNA PPT primed substrate by scintillation proximity assay.
Assay [11] has as its target T1, Human immunodeficiency virus type 1 reverse transcriptase. The assay can be described thus: Inhibition of HIV1 RT mediated RNA-dependent minus-strand DNA synthesis after 5 mins by gel-based assay.
Assay [12] concerns the target T3, Human immunodeficiency virus type 1 reverse transcriptase. Description: Inhibition of HIV1 RT Y181C mutant mediated DNA-dependent DNA polymerization using RNA PPT primed substrate by scintillation proximity assay.
For assay [13], the target named is T1, Human immunodeficiency virus type 1 reverse transcriptase. Description: Inhibition of HIV1 RT mediated DNA-dependent DNA polymerization using chimeric substrate with RNA PPT primer extended at 3' end with upto 9 deoxyribonucleotides.
For assay [14] the target is unchanged. Description: Inhibition of HIV1 RT mediated DNA-dependent DNA polymerization using chimeric substrate with RNA PPT primer.
Assay [15] has the same target. Description: Inhibition of HIV1 RT mediated DNA-dependent DNA polymerization using chimeric substrate with RNA PPT primer extended at 3' end with upto one deoxyribonucleotide.
Assay [16] is described as follows: Inhibition of HIV1 RT D443N mutant mediated DNA-dependent DNA polymerization using chimeric substrate with RNA PPT primer extended at 3' end with upto 3 deoxyribonucleotides. Also on record: species or system Human immunodeficiency virus 1.
The target in assay [17] is T1, Human immunodeficiency virus type 1 reverse transcriptase. Description: Inhibition of HIV1 RT mediated DNA-dependent DNA polymerization using chimeric substrate with RNA PPT primer extended at 3' end with upto 2 deoxyribonucleotides.
Assay [18] can be described thus: Inhibition of HIV1 RT D443N mutant mediated DNA-dependent DNA polymerization using chimeric substrate with RNA PPT primer extended at 3' end with upto 12 deoxyribonucleotides. Also on record: species or system Human immunodeficiency virus 1.
Assay [19] has as its target T3, Human immunodeficiency virus type 1 reverse transcriptase. Description: Inhibition of HIV1 RT Y181C mutant mediated DNA-dependent DNA polymerization using RNA/DNAM duplex primed substrate by scintillation proximity assay.
Assay [20] addresses T2, Human immunodeficiency virus type 1 reverse transcriptase. The assay can be described thus: Inhibition of HIV1 RT K103N mutant mediated DNA-dependent DNA polymerization using RNA PPT primed substrate by scintillation proximity assay.
For assay [21], the target named is T1, Human immunodeficiency virus type 1 reverse transcriptase. Description: Inhibition of HIV1 RT mediated DNA-dependent DNA polymerization using chimeric substrate with RNA PPT primer extended at 3' end with upto 12 deoxyribonucleotides.
Assay [22] is described as follows: Inhibition of HIV1 RT D443N mutant mediated DNA-dependent DNA polymerization using chimeric substrate with RNA PPT primer extended at 3' end with upto 9 deoxyribonucleotides. Also on record: species or system Human immunodeficiency virus 1.
The target in assay [23] is T1, Human immunodeficiency virus type 1 reverse transcriptase. Description: Inhibition of HIV1 RT mediated DNA-dependent DNA polymerization.
The target is the same in assay [24]. The assay can be described thus: Inhibition of HIV1 RT mediated DNA-dependent DNA synthesis initiation using DNA PPT-primed substrate.
Assay [25] has as its system Human immunodeficiency virus 1. Description: Inhibition of HIV1 RT D443N mutant mediated DNA-dependent DNA polymerization.
The nature of assay [26]: Inhibition of HIV1 RT D443N mutant mediated DNA-dependent DNA polymerization using chimeric substrate with RNA PPT primer extended at 3' end with upto one deoxyribonucleotide. Also on record: species or system Human immunodeficiency virus 1.

Calls of active or inactive are those of the source. The rule behind the calls is not given here.

On to `Cc1cn([C@H]2C[C@H](N=[N+]=[N-])[C@@H](CO[P@](=O)(O)O[P@](=O)(O)OP(=O)(O)O)O2)c(=O)[nH]c1=O` [ZIDOVUDINE TRIPHOSPHATE], for which the IC50 came out at 360 nM in [1] and 320 nM in assay [2].

As for `CCc1cc(NCc2nc3c(Cl)ccc(Cl)c3o2)c(O)nc1C` [L-697661], the IC50 in [3] is 440 nM; in [4], 270 nM; in assay [5], 270 nM; in assay [6] it was above 5 µM; in assay [7], 230 nM; in assay [8] it was above 5 µM. For the same compound, the half-maximal inhibitory concentration (IC50) is 35 nM in assay [9]; above 5 µM in assay [10]; 230 nM in assay [1]; 1400 nM in [11]; above 5 µM in assay [12]; 320 nM in [13]. The 50% inhibitory concentration (IC50) in assay [14] was 280 nM; in assay [15] it was 220 nM; in [16], 240 nM; in [17], 280 nM; in [18], 150 nM; in assay [19] it was above 5 µM. Moreover, the IC50 in assay [20] was above 5 µM; in assay [21], 130 nM; in [22], 130 nM; in assay [23], 290 nM; in assay [24] it was above 10 µM; in assay [26], 240 nM. The compound further returned an IC50 in assay [2] of 430 nM. Moreover, the result in assay [25] was inactive.
